Columns and labels:
Test in all cases: relative viability (nuclei count vs DMSO), 5 days (fraction); higher = more cells survive
[1] = compound: CS(=O)(=O)c1ccc(-c2cnc(N)c(C(=O)Nc3ccccc3)n2)cc1 [VE-821] + CCNC(=O)c1noc(-c2cc(C(C)C)c(O)cc2O)c1-c1ccc(CN2CCOCC2)cc1 [Luminespib] (partner 0.01 µM)
How it was run: (§1)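 Lung cancer cell lines were seeded in 1536-well plates and dosed by pin tool the next day, with either a single drug or a fixed anchor-drug dose combined with five library-drug doses (not always all listed) spaced in √10 steps. Five days later, one step fixed the cells and stained their nuclei (final 0.05% Triton X-100, 1% formaldehyde, 1 ug/ml Hoechst), and nuclei were counted on 4× images. Relative viability is the nuclei count in treated wells divided by the count in vehicle wells, and each value is the median of duplicate plates.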

[2] = compound: CS(=O)(=O)c1ccc(-c2cnc(N)c(C(=O)Nc3ccccc3)n2)cc1 [VE-821] + Nc1nc2[nH]cc(CCc3ccc(C(=O)N[C@@H](CCC(=O)O)C(=O)O)cc3)c2c(=O)[nH]1 [Pemetrexed] (partner 0.2 µM)
How it was run: as §1

[3] = compound: CS(=O)(=O)c1ccc(C(=O)Nc2ccc(Cl)c(-c3ccccn3)c2)c(Cl)c1 [Vismodegib] + COc1cc2c(Oc3ccc(NC(=O)C4(C(=O)Nc5ccc(F)cc5)CC4)cc3F)ccnc2cc1OCCCN1CCOCC1 [Foretinib] (partner 0.25 µM)
How it was run: as §1

[4] = compound: N#CC[C@H](C1CCCC1)n1cc(-c2ncnc3[nH]ccc23)cn1 [Ruxolitinib] + COc1cccc2cc(-c3nc([C@H]4CC[C@H](C(=O)O)CC4)n4ncnc(N)c34)[nH]c12 [OSI-027] (partner 0.5 µM)
How it was run: as §1

Cell Line	relative viability ([1]; first compound 0.08 µM)	relative viability ([1]; first compound 0.253 µM)	relative viability ([1]; first compound 0.8 µM)	relative viability ([1]; first compound 2.53 µM)	relative viability ([1]; first compound 8 µM)	relative viability ([2]; first compound 0.08 µM)	relative viability ([2]; first compound 0.253 µM)	relative viability ([2]; first compound 0.8 µM)	relative viability ([2]; first compound 2.53 µM)	relative viability ([2]; first compound 8 µM)	relative viability ([3]; first compound 0.08 µM)	relative viability ([3]; first compound 0.253 µM)	relative viability ([3]; first compound 0.8 µM)	relative viability ([3]; first compound 2.53 µM)	relative viability ([3]; first compound 8 µM)	relative viability ([4]; first compound 0.08 µM)	relative viability ([4]; first compound 0.253 µM)	relative viability ([4]; first compound 0.8 µM)	relative viability ([4]; first compound 2.53 µM)	relative viability ([4]; first compound 8 µM)
NCI-H1666	1.04	1.01	1.1	1.03	0.761	0.941	0.841	0.779	0.558	0.571	1.01	0.935	1.05	0.925	0.936	0.877	0.842	0.864	0.782	0.968
NCI-H1915	0.816	0.752	0.698	0.726	0.525	0.499	0.432	0.344	0.311	0.23	1.02	1.06	1.05	1.05	1.08	0.622	0.619	0.663	0.463	0.464
HCC-15	0.37	0.175	0.517	0.422	0.315	0.219	0.23	0.21	0.211	0.179	1.01	0.964	1.04	1.09	1.04	0.569	0.494	0.751	0.522	0.541
EKVX	0.96	0.77	0.763	0.939	0.815	0.422	0.373	0.419	0.341	0.227	0.744	0.702	1.05	0.724	0.737	0.661	0.641	0.486	0.632	0.733
PC-14	0.173	0.19	0.123	0.241	0.12	0.126	0.124	0.0908	0.0863	0.0432	0.91	0.948	0.984	0.998	0.963	–	0.949	1.22	0.608	0.543
NCI-H650	0.986	0.94	0.662	0.883	0.798	0.934	0.846	1.02	0.9	0.835	0.792	0.999	0.988	1.03	0.951	–	0.497	0.618	0.502	0.341
NCI-H1650	0.204	0.19	0.25	0.211	0.172	0.344	0.355	0.289	0.386	0.307	1.08	0.938	1.13	1.07	1.21	–	0.651	0.98	0.769	0.641
NCI-H1355	0.71	0.665	0.643	0.597	0.409	1.15	0.976	0.888	1.05	0.903	0.92	0.988	0.904	0.997	0.987	0.382	0.328	0.388	0.373	0.318
HOP-62	0.966	0.822	0.981	0.694	0.596	0.305	0.336	0.244	0.235	0.223	1.1	1.03	1.1	1.07	1.1	0.874	0.724	0.91	0.825	0.824
NCI-H3122	0.111	0.064	0.0908	0.0825	0.0706	0.202	0.19	0.176	0.159	0.128	0.994	0.938	0.849	0.858	1.02	–	0.296	1.22	0.51	0.569
NCI-H1437	1.19	1.15	1.06	1.19	0.878	0.331	0.316	0.281	0.173	0.187	1.23	1.22	1.25	1.21	1.26	0.965	0.758	0.926	0.752	0.78
BEN	0.414	0.374	0.376	0.344	0.322	0.839	0.678	0.719	0.799	0.581	0.871	0.799	0.606	0.642	0.644	0.336	0.299	0.304	0.266	0.267
NCI-H520	0.218	0.24	0.191	0.276	0.227	0.75	0.657	0.582	0.361	0.223	0.839	0.678	0.697	0.709	0.682	0.317	–	0.278	0.239	0.326
NCI-H2087	0.133	0.176	0.206	0.144	0.131	0.667	0.634	0.65	0.679	0.67	1.09	1.1	0.985	1.13	0.938	0.488	0.413	0.585	0.478	0.642

Source: the supplement of paper PMC10307832
